Reference: PMC10135050, “Neutralizing Carbapenem Resistance by Co-Administering Meropenem with Novel β-Lactam-Metallo-β-Lactamase Inhibitors” (Antibiotics, 2023)
In brackets after ≈: the same amount, converted by molar mass. Entries after “also recorded” stand apart in the source; their conditions may differ.

Legend:
HepG2 cells = experiment: MTT cell viability assay; assay type: cell-based, human
Procedure: (§1) HepG2 cells were cultured in 25 mL cell culture flasks using Eagle’s minimum essentials medium (EMEM) supplemented with 10% fetal bovine serum, 1% pen-strep-fungizone and 1% L-glutamine, maintained in a humidified incubator (37 °C, 5% CO2) until approximately 80% confluence.
(§2) The MTT assay was one of the methods used to determine in vitro cell viability of BP on HepG2 cells. HepG2 cells (15,000 cells/well) were seeded into a 96-well microtiter plate and allowed to adhere overnight (37 °C, 5% CO2). Thereafter, the cells were incubated (37 °C, 5% CO2) with a range of BP concentrations (0, 1, 8, 10, 50, 100 and 200 μg/mL) in triplicate for 6 h. After the 6 h incubation, the cells were washed with 0.1 M phosphate-buffered saline (PBS) and incubated with MTT salt solution (5 mg/mL in 0.1 M PBS) and 100 μL CCM for 4 h (37 °C, 5% CO2). The MTT salt solution was removed, and DMSO (100 μL/well) was added and incubated for 1 h. The optical density was measured using a spectrophotometer (Bio-Tek μQuant) at 570/690 nm. Results are expressed as % cell viability versus BP2 concentration (μg/mL).

MTT cell viability assay = assay type: cell-based, human; details: human, HepG2 cells, 6 h, read-out: IC50 cytotoxicity
Procedure: as §1, §2

[1] = target: T1, Recombinant human glyoxylase II (Glo2) (Homo sapiens, UniProt Q16775); experiment: Non-specific binding to zinc in non-MBLs, glyoxylase II activity; assay type: biochemical; details: concentrations up to 500 µM
T1 construct: purchased BioVision Inc., Waltham, MA, USA
Text: Metal chelators are known to suffer from off-target specificity and as a result have been criticized as potential MBLIs in vivo [44].
The methodology has been previously described. EDTA (purchased from Merck KGaA, Darmstadt, Germany) was included as a positive control.

[2] = tested on: Escherichia coli TC CARF (VIM-2); experiment: MIC, broth microdilution and checkerboard assay; assay type: cell-based; details: read-out: MIC BP2 Alone
Procedure: (§3) The Minimum Inhibitory Concentration (MIC) of meropenem BP2 was determined utilizing the broth microdilution assay, as described by the Clinical and Laboratory Standards Institute (CLSI) antimicrobial susceptibility guidelines. The mono-therapeutic effect of each antibiotic and MBLI was evaluated across a panel of MBL-producing Enterobacterales.
(§4) The drug susceptibility profile of meropenem in combination with BP2 was studied using the checkerboard assay. This assay was used to ascertain the effect of two drugs on antimicrobial resistance targeting CRE strains. The assay was performed according to the protocol described previously and was under CLSI antimicrobial susceptibility guidelines. Briefly, twofold dilutions of meropenem with each chelator were made in Cation-adjusted Mueller Hinton Broth (CAMHB) in a 96-well microtiter plate. A 0.5 McFarland-standardized bacterial inoculum was added to each well to obtain a final volume of 100 µL per well. Thereafter, plates were incubated at 37 °C for 18 h under aerobic conditions. The checkerboard assays were performed in triplicate. The MIC was determined as the lowest concentration at which no visible growth was present. The fractional inhibitory concentration index (FICI) was calculated for each combination according to the equation FICI = FICa (MIC of drug A in combination/MIC of drug A alone) + FICb (MIC of drug B in combination/MIC of drug B alone). The FICI was interpreted as follows: synergy, FICI ≤ 0.5; additive 0.5–1; indifference, […] FICI < 4; and antagonism, FICI ≥ 4 [61].

[3] = tested on: Klebsiella pneumoniae USA 449 (NDM); experiment: MIC, broth microdilution and checkerboard assay; assay type: cell-based; details: read-out: MIC BP2 Alone
Procedure: as §3, §4

K. pneumoniae NDM [4] = experiment: Time-kill study; assay type: cell-based; details: meropenem monotherapy
Procedure: Time-kill studies were performed according to previously published methods, including those described by CLSI document M26-A [62]. Briefly, an overnight culture of K. pneumoniae NDM was diluted to a 0.5 McFarland standard that correlated to approximately […]. The prepared bacterial suspensions were added to 96-well plates containing a fixed dose of 32 mg/L of BP2 and meropenem in concentrations of 0.5, 1 or 2 mg/L. Plates were incubated at 35 °C and 100 rpm shaking. A bacterial control without adding any drugs was included, and a meropenem-only control employing similar conditions. Viability counts were performed at 0, 2, 4, 6, 8, and 24 h by sampling 0.1 mL, diluting as appropriate, and spreading onto Mueller Hinton agar (MHA). These plates were incubated at 35 °C for at least 18 h. Colonies were enumerated as cfu/mL.

K. pneumoniae NDM [5] = experiment: Murine thigh infection model; assay type: in vivo, Klebsiella pneumoniae; details: neutropenic BALB/c mice, 100 mg/kg IP every 2 h
Procedure: A murine thigh infection model described by Michail et al. was performed with minor modifications. Male Bragg inbred albino c-strain (BALB/c) mice weighing 20–25 g (n = 90) were used in this study. Each of the three groups constituted n = 30 mice, with n = 6 mice receiving treatment every two hours. Prior to infection, mice were IP treated with 150 mg/kg cyclophosphamide on day one and 100 mg/kg on day four of the trial. This was performed to induce neutropenia in the mice. Neutropenia was confirmed by a neutrophil count of <100/mm^3. On day five of the trial, 0.1 mL inoculum containing 10^6–10^8 cfu/mL of K. pneumoniae NDM were IM injected into the right thigh of the mice to initiate infection. Meropenem monotherapy, BP2 + meropenem combination therapy, or normal saline was administered every two hours in an eight-hour treatment period. Mice were euthanized by isoflurane overdose at 2 h, 4 h, 6 h and 8 h post dosing. The right thigh muscle was then aseptically removed and homogenized in 5 mL PBS. Homogenates were spread onto Mueller–Hinton agar and MacConkey agar plates, followed by incubation at 35 °C for 24 h and enumeration of the cfu/mL.

[6] = tested on: Escherichia coli ATCC 25922; experiment: MIC, broth microdilution and checkerboard assay; assay type: cell-based; details: ATCC25922, E. coli ATCC 25922, no MBL, alone, read-out: MIC MEM Alone
Procedure: as §3, §4

| Structure (SMILES) | Cell viability compared to the control (HepG2 cells; 1 µg/mL and 10 µg/mL) | Cell viability compared to the control (HepG2 cells; 200 µg/mL) | Cell viability compared to the control (HepG2 cells; 50–100 µg/mL) | IC50 at 6 h (MTT cell viability assay) [µg/mL] | Glyoxylase II activity [1] | MIC [2] [µg/mL] | MIC [3] [µg/mL] | Increase in bacteria compared to the BP2 + meropenem-treated group (K. pneumoniae NDM [4]) [log10] | Best Log10 Cfu/ml (K. pneumoniae NDM [5]; treatment time 2 h) [Log10 Cfu/ml] | Mean Log10 Cfu/ml (K. pneumoniae NDM [5]; treatment time 2 h) [Log10 Cfu/ml] | Best Log10 Cfu/ml (K. pneumoniae NDM [5]; treatment time 4 h) [Log10 Cfu/ml] | Mean Log10 Cfu/ml (K. pneumoniae NDM [5]; treatment time 4 h) [Log10 Cfu/ml] | Best Log10 Cfu/ml (K. pneumoniae NDM [5]; treatment time 6 h) [Log10 Cfu/ml] | Mean Log10 Cfu/ml (K. pneumoniae NDM [5]; treatment time 6 h) [Log10 Cfu/ml] | Best Log10 Cfu/ml (K. pneumoniae NDM [5]; treatment time 8 h) [Log10 Cfu/ml] | Mean Log10 Cfu/ml (K. pneumoniae NDM [5]; treatment time 8 h) [Log10 Cfu/ml] | MIC [6] [µg/mL] |
| --- | --- | --- | --- | --- | --- | --- | --- | --- | --- | --- | --- | --- | --- | --- | --- | --- | --- |
| CON=C(C(=O)NC1C(=O)N2C(C(=O)O)=C(COC(C)=O)CSC12)c1csc(NC(=O)CC(C(=O)OC)N2CCN(CC(=O)O)CCN(CC(=O)O)CC2)n1 (stereo in doubt) [BP2] | significantly increased | significant decrease | not significantly altered | 62 (≈ 76.3 µM) | did not reduce the activity; also recorded: did not interact | > 256 | > 256 | – | – | – | – | – | – | – | – | – | – |
| C[C@@H](O)[C@H]1C(=O)N2C(C(=O)O)=C(S[C@@H]3CN[C@H](C(=O)N(C)C)C3)[C@H](C)[C@H]12 [Meropenem] | – | – | – | – | – | – | – | > 2 | 7.2 | 6.8 | 8 | 8.3 | 8.3 | 8.4 | 8.3 | 8.2 | 0.06 |
